Reference: patent publication US20260098039A1, “SOLID FORMS OF COMPOUND I OR SALTS THEREOF” (Jacobio Pharmaceuticals Co., Ltd., priority 2022, published 2026)
Converted amounts (≈) assume the structure as drawn. “Also recorded” adds a separate entry of the source.

Experiments:
[1] = Equilibrium solubility of crystalline form 1; assay type: physicochemical
Experimental: The equilibrium solubility of crystalline form 1 of Compound I was tested according to the following table 7.

[2] = Solid state stability of crystalline form 1; assay type: physicochemical; conditions: long-term, accelerated, high temperature and high humidity conditions, exposed, dark, 10 days
Experimental: The stability of crystalline Form 1 of Compound I was tested according to the following table 6.
The solid stability of crystalline form 1 of Compound I was exposure for 10 days in high humidity (25° C.±2° C., 90% RH±5% RH), high temperature (50° C.±5° C., <30% RH), long-term (25° C.±5° C., 60% RH±5%) and accelerated (40° C.±2° C., 75% RH±5%) conditions.

PARP7 enzyme = molecular target: T1, PARP7 enzyme (Homo sapiens, UniProt Q7Z3E1); experiment: PARP7 enzymatic HTRF assay; assay type: binding; conditions: 6 nM PARP7 enzyme solution, RBN011147 probe, 25° C. 3 hrs
T1 sequence (Q7Z3E1 1-657): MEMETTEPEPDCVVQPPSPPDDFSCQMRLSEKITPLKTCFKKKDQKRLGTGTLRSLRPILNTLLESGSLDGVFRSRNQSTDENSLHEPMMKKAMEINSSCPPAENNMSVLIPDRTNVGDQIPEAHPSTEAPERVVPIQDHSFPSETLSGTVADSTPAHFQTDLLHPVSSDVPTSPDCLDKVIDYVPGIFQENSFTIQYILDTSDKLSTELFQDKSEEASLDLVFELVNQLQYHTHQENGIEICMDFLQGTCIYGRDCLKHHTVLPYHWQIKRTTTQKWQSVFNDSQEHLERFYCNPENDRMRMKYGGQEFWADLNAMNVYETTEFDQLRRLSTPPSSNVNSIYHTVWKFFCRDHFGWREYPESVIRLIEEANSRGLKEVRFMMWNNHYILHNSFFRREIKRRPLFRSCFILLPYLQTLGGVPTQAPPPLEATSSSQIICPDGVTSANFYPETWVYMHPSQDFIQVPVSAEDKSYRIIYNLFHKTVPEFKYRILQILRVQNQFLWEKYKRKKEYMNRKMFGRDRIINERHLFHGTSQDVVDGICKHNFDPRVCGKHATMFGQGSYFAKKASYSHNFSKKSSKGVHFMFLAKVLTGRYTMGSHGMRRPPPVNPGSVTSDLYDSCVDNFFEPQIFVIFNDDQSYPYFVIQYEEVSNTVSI
Experimental: The PARP7 enzyme inhibitory activity of each compound was tested using HTRF (homogeneous time resolved fluorescence) assay, and the half inhibitory concentration IC50 thereof was obtained.
(1) Each compound to be tested was prepared using gradient dilution method with DMSO and water to obtain a solution with the concentration of 50 nM, 10 nM, 2 nM, 0.4 nM, and 0.08 nM. The concentration of DMSO in the solution of each compound to be tested was 2%. […]
(5) The fluorescence signal was read on SPARK plate reader (Tecan), the wavelength of the excitation spectrum of the SPARK plate reader was 320 nm, and the wavelength of the emission spectrum of the SPARK plate reader was 620 nm and 665 nm. The ratio of […] was calculated for the solution in each well. The ratio was calculated according to the following formula: Ratio=absorbance at 665 nm/absorbance at 620 nm×10^4.
(6) The activation of the compounds to be tested was calculated according to the following formula: Activation (%)=100× (ratiocompound−rationnegative)/(ratiopositive−rationegative). […]

Row | Structure (SMILES) | solubility thermodynamic ([1]; 37 °C, thermodynamic from solid, FeSSIF, via HPLC) [µg/mL] | Polymorph (via XRPD) after equilibrium solubility test ([1]; after 24 h in water (25° C.), SGF (37° C.), FaSSIF (37° C.), FeSSIF (37° C.)) | time to reach basic saturation ([1]; water (25° C.), SGF (37° C.), FaSSIF (37° C.), FeSSIF (37° C.)) [h] | Polymorph (via XRPD) in solid state stability [2] | IC50 (PARP7 enzyme) [µM]
1 | Cc1c2n(c3ncc(C(F)(F)F)cc13)CCN(C(=O)CCOC[C@H](C)Oc1cn[nH]c(=O)c1C(F)(F)F)C2 [crystalline form 1 of Compound I, (S)-5-((1-(3-(5-methyl-3-(trifluoromethyl)-8,9-dihydropyrido[3′,2′:4,5]pyrrolo[1,2-a]pyrazin-7(6H)-yl)-3-oxopropoxy)propan-2-yl)oxy)-4-(trifluoromethyl)pyridazin-3(2H)-one] | ~100 (≈ 183 µM) | remains unchanged | 4 | remain unchanged; also recorded: The polymorph remained unchanged under above 4 conditions for 10 | –
2 | Cc1c2n(c3ncc(C(F)(F)F)cc13)CCN(C(=O)CCOC[C@H](C)Oc1cn[nH]c(=O)c1C(F)(F)F)C2 [Compound I, (S)-5-((1-(3-(5-methyl-3-(trifluoromethyl)-8,9-dihydropyrido[3′,2′:4,5]pyrrolo[1,2-a]pyrazin-7(6H)-yl)-3-oxopropoxy)propan-2-yl)oxy)-4-(trifluoromethyl)pyridazin-3(2H)-one] | – | – | – | – | 0.00158
